Reference: patent publication US20090221642A1, “MUSCARINIC RECEPTOR AGONISTS, COMPOSITIONS, METHODS OF TREATMENT THEREOF, AND PROCESSES FOR PREPARATION THEREOF-176” (AstraZeneca AB, priority 2008, published 2009)
Where two headings read alike, the source gives them in different places.

Key:
Type in all cases: cell-based
[1] = molecular target: T1, hM1 (human Muscarinic receptor subtype 1) (Homo sapiens, UniProt P11229); test: Human M1 calcium mobilization FLIPR assay; conditions: hM1 expressed in CHO cells, intracellular Ca2+ release
T1 construct: expressed in transfected cells; host or cells: CHO cells (Chinese hamster ovary cells, ATCC)
T1 sequence (P11229 1-460): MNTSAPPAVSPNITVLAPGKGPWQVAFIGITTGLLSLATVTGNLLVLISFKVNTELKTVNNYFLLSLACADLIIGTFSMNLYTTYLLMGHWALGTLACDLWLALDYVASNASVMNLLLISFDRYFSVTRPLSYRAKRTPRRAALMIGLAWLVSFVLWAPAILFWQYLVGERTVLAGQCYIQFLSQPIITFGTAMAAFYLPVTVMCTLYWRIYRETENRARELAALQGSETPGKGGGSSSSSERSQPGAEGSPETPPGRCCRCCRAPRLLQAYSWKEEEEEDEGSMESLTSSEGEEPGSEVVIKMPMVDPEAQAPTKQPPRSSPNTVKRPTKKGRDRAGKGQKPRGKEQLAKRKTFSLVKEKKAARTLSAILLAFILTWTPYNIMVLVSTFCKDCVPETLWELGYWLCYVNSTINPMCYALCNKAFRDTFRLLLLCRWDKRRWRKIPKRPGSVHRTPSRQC
In short: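 CHO cells expressing the receptor, dye-loaded at 37°C for 60 min, read on FLIPR at 510-570 nm. Agonism taken from compound-induced Ca2+ rise (max RFU for M1); M3/M5 inhibition measured against 2 nM acetylcholine using max minus min RFU. 10-point threefold dilutions, sigmoidal fits.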

[2] = molecular target: T2, hM3 (human Muscarinic receptor subtype 3) (Homo sapiens, UniProt P20309); test: Human M3 calcium mobilization FLIPR assay; conditions: hM3 expressed in CHO cells, intracellular Ca2+ release, read-out: hM3 EC50
T2 construct: expressed in transfected cells; host or cells: CHO cells (Chinese hamster ovary cells, ATCC)
T2 sequence (P20309 whole entry): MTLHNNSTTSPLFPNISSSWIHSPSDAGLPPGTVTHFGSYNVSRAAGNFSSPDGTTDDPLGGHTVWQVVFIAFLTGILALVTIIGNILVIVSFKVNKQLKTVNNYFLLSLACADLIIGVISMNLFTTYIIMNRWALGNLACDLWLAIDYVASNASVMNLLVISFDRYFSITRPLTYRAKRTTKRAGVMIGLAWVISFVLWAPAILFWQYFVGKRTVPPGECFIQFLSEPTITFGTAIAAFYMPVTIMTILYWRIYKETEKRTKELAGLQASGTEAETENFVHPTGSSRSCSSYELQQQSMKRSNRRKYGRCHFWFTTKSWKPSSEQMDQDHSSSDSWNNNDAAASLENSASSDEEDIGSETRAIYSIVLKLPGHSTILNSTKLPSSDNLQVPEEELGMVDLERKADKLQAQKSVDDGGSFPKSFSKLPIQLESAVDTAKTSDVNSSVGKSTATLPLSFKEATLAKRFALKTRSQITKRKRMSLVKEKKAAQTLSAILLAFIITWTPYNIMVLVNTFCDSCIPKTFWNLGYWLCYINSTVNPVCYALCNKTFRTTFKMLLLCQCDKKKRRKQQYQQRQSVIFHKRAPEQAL
Description: (§1) Human M1, rat M1, human M3 and human M5 Calcium Mobilization FLIPR™ Assay
(§2) The compound activity in the present invention (EC50 or IC50) is measured using a 384 plate-based imaging assay that monitors drug induced intracellular Ca^2+ release in whole cells. Activation of hM1 (human Muscarinic receptor subtype 1, gene bank access NM_000738), rM1 (rat Muscarinic receptor subtype 1, gene bank access NM_080773), hM3 (human Muscarinic receptor subtype 3, gene bank access NM_000740NM_000740) and hM5 (human Muscarinic receptor subtype 5, gene bank access NM_0121258), receptors expressed in CHO cells (Chinese hamster ovary cells, ATCC) is quantified in a Molecular Devices FLIPR II™ instrument as an increase in fluorescent signal. Inhibition of hM3 and hM5 by compounds is determined by the decrease in fluorescent signal in response to 2 nM acetylcholine activation.
(§3) Prior to experiment, the cell culture medium is removed from the plates by inversion. […] Plates are incubated at 37° C. for 60 minutes prior to start the experiment. The incubation is terminated by washing the cells four times in assay buffer, leaving a residual 25 μl buffer per well. Cell plates are then transferred to the FLIPR, ready for compound additions.
(§4) The day of experiment, acetylcholine and compounds are diluted in assay buffer in three-fold concentration range (10 points serial dilution) for addition by FLIPR instrument. For all calcium assays, a baseline reading is taken for 10 seconds followed by the addition of 12.5 μl of compounds, resulting in a total well volume of 37.5 μl. Data is collected every second for 60 pictures and then every 6 seconds for 20 pictures prior to the addition of agonist. For hM3 and hM5, before agonist addition, a second baseline reading is taken for 10 seconds followed by the addition of 12.5 μl of agonist or buffer, producing a final volume of 50 μl. After agonist stimulation, the FLIPR continues to collect data every second for 60 pictures and then every 6 seconds for 20 pictures. The fluorescence emission is read using filter 1 (emission 510-570 nm) by the FLIPR on board CCD camera.
(§5) Calcium mobilization output data are calculated as the maximal relative fluorescence unit (RFU) minus the minimal value for both compound and agonist reading frame (except for hM1 and rM1 using only the maximal RFU). Data are analyzed using sigmoidal fits of a non-linear curve-fitting program (XLfit version 4.2.2 Excel add-in version 4.2.2 build 18 math 1Q version 2.1.2 build 18). All pEC50 and plC50 values are reported as arithmetic means ±standard error of mean of ‘n’ independent experiments.

[3] = molecular target: T3, hM5 (human Muscarinic receptor subtype 5) (Homo sapiens, UniProt P08912); test: Human M5 calcium mobilization FLIPR assay; conditions: hM5 expressed in CHO cells, intracellular Ca2+ release, read-out: hM5 EC50
T3 construct: expressed in transfected cells; host or cells: CHO cells (Chinese hamster ovary cells, ATCC)
T3 sequence (P08912 1-532): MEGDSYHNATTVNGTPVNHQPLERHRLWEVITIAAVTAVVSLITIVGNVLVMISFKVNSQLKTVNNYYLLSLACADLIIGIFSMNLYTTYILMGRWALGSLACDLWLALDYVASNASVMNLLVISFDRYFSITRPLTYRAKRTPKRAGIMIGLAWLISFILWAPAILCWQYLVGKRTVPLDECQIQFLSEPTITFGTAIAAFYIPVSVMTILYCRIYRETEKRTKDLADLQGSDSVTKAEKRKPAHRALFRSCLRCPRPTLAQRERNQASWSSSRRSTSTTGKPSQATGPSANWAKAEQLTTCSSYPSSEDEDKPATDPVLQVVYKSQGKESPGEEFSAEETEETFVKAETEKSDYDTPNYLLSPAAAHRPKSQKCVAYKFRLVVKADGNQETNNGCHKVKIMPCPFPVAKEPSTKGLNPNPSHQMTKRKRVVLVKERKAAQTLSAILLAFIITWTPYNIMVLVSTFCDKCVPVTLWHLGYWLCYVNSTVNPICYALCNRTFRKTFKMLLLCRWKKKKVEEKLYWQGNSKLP
Description: as §1, §2, §3, §4, §5

Structure (SMILES)	EC50 ([1]; read-out: hM1 EC50) [nM]	EC50 [2] [nM]	EC50 [3] [nM]	EC50 ([1]; hM1 EC50 (nM)) [nM]
CC1(N2CCC(n3c(=O)[nH]c4ccccc43)CC2)CCN(C(=O)OCCF)C1 (racemic) [Example 4, 2-fluoroethyl 3-methyl-3-(4-(2-oxo-2,3-dihydro-1H-benzo[d]imidazol-1-yl)piperidin-1-yl)pyrrolidine-1-carboxylate]	13.5	> 40000	> 9600	–
CCOC(=O)N1CCC(C)(N2CCC(n3c(=O)[nH]c4cc(F)ccc43)CC2)C1 (single isomer, unassigned) [Example 7, ethyl 3-(4-(5-fluoro-2-oxo-2,3-dihydro-1H-benzo[d]imidazol-1-yl)piperidin-1-yl)-3-methylpyrrolidine-1-carboxylate]	< 6.6	> 40000	3100	–
Cc1ccc2c(c1)[nH]c(=O)n2C1CCN(C2(C)CCN(C(=O)OC(C)C)C2)CC1 (single isomer, unassigned) [Example 15, isopropyl 3-methyl-3-(4-(5-methyl-2-oxo-2,3-dihydro-1H-benzo[d]imidazol-1-yl)piperidin-1-yl)pyrrolidine-1-carboxylate]	94.9	> 40000	–	–
CC#CCOC(=O)N1CCC(C)(N2CCC(n3c(=O)[nH]c4ccc(C)cc43)CC2)C1 (single isomer, unassigned) [Example 20, but-2-ynyl 3-methyl-3-(4-(6-methyl-2-oxo-2,3-dihydro-1H-benzo[d]imidazol-1-yl)piperidin-1-yl)pyrrolidine-1-carboxylate]	14.2	535	720	–
CC1(N2CCC(n3c(=O)[nH]c4cc(F)ccc43)CC2)CCN(C(=O)OCCF)C1 (single isomer, unassigned) [Example 24, 2-fluoroethyl 3-(4-(5-fluoro-2-oxo-2,3-dihydro-1H-benzo[d]imidazol-1-yl)piperidin-1-yl)-3-methylpyrrolidine-1-carboxylate]	10.4	> 26500	1570	–
Cc1ccc2[nH]c(=O)n(C3CCN(C4(C)CCN(C(=O)OCCF)C4)CC3)c2c1 (single isomer, unassigned) [Example 28, 2-fluoroethyl 3-methyl-3-(4-(6-methyl-2-oxo-2,3-dihydro-1H-benzo[d]imidazol-1-yl)piperidin-1-yl)pyrrolidine-1-carboxylate]	10	> 24300	2650	–
C#CCOC(=O)N1CCC(C)(N2CCC(n3c(=O)[nH]c4ccc(C)cc43)CC2)C1 (single isomer, unassigned) [Example 41, prop-2-ynyl 3-methyl-3-(4-(6-methyl-2-oxo-2,3-dihydro-1H-benzo[d]imidazol-1-yl)piperidin-1-yl)pyrrolidine-1-carboxylate]	23.5	> 40000	> 40000	–
C#CCOC(=O)N1CCC(C)(N2CCC(n3c(=O)[nH]c4ccc(C)cc43)CC2)C1 (single isomer, unassigned) [Example 43, prop-2-ynyl 3-methyl-3-(4-(6-methyl-2-oxo-2,3-dihydro-1H-benzo[d]imidazol-1-yl)piperidin-1-yl)pyrrolidine-1-carboxylate]	2.5	553	205	–
COC(=O)N1CCC(C)(N2CCC(n3c(=O)[nH]c4ccc(C)cc43)CC2)C1 (single isomer, unassigned) [Example 45, methyl 3-methyl-3-(4-(6-methyl-2-oxo-2,3-dihydro-1H-benzo[d]imidazol-1-yl)piperidin-1-yl)pyrrolidine-1-carboxylate]	14.1	> 40000	1080	–
COC(=O)N1CCC(C)(N2CCC(n3c(=O)[nH]c4cc(C)ccc43)CC2)C1 (single isomer, unassigned) [Example 48, methyl 3-methyl-3-(4-(5-methyl-2-oxo-2,3-dihydro-1H-benzo[d]imidazol-1-yl)piperidin-1-yl)pyrrolidine-1-carboxylate]	8.5	> 40000	> 40000	–
CCOC(=O)N1CCC(C)(N2CCC(n3c(=O)[nH]c4ccc(F)cc43)CC2)C1 (single isomer, unassigned) [Example 49, ethyl 3-(4-(6-fluoro-2-oxo-2,3-dihydro-1H-benzo[d]imidazol-1-yl)piperidin-1-yl)-3-methylpyrrolidine-1-carboxylate]	15.1	> 40000	> 6210	–
CCOC(=O)N1CCC(C)(N2CCC(n3c(=O)[nH]c4ccc(F)cc43)CC2)C1 (single isomer, unassigned) [Example 50, ethyl 3-(4-(6-fluoro-2-oxo-2,3-dihydro-1H-benzo[d]imidazol-1-yl)piperidin-1-yl)-3-methylpyrrolidine-1-carboxylate]	2.2	> 40000	3560	–
COC(=O)N1CCC(C)(N2CCC(N3C(=O)Cc4cc(F)c(C)cc43)CC2)C1 (single isomer, unassigned) [Example 84, methyl 3-(4-(5-fluoro-6-methyl-2-oxoindolin-1-yl)piperidin-1-yl)-3-methylpyrrolidine-1-carboxylate]	–	–	–	7.7
COC(=O)N1CCC(C)(N2CCC(n3c(=O)[nH]c4cc(F)ccc43)CC2)C1 (centres unmarked) [Example 8, methyl 3-(4-(5-fluoro-2-oxo-2,3-dihydro-1H-benzo[d]imidazol-1-yl)piperidin-1-yl)-3-methylpyrrolidine-1-carboxylate]	18.3	–	–	–
C#CCOC(=O)N1CCC(C)(N2CCC(n3c(=O)[nH]c4cc(F)ccc43)CC2)C1 (centres unmarked) [Example 11, prop-2-ynyl 3-(4-(5-fluoro-2-oxo-2,3-dihydro-1H-benzo[d]imidazol-1-yl)piperidin-1-yl)-3-methylpyrrolidine-1-carboxylate]	2	1130	–	–
CCOC(=O)N1CCC(C)(N2CCC(n3c(=O)[nH]c4ccc(C)cc43)CC2)C1 (centres unmarked) [Example 16, ethyl 3-methyl-3-(4-(6-methyl-2-oxo-2,3-dihydro-1H-benzo[d]imidazol-1-yl)piperidin-1-yl)pyrrolidine-1-carboxylate]	8.1	–	–	–
COC(=O)N1CCC(C)(N2CCC(n3c(=O)[nH]c4ccc(C)cc43)CC2)C1 (centres unmarked) [Example 17, methyl 3-methyl-3-(4-(6-methyl-2-oxo-2,3-dihydro-1H-benzo[d]imidazol-1-yl)piperidin-1-yl)pyrrolidine-1-carboxylate]	9.7	–	–	–
